Here are results for five molecules from PubChem BioAssay AID1259407 (Chemical Carcinogenesis Research Information System (CCRIS), 2018).

Structures are written as SMILES. Calls of active or inactive are those of the source. How the calls were made is not given here.

The series has as its system CCRIS mutagenicity, Ames/micronucleus/aberration tests. Description: CCRIS mutagenicity studies.
The mark [1] stands for this setting: Test System: AMES SALMONELLA TYPHIMURIUM, Strain/Indicator: TA98, Metabolic Activation: NONE, Method: PREINCUBATION
Setting [2] is: Test System: AMES SALMONELLA TYPHIMURIUM, Strain/Indicator: TA100, Metabolic Activation: NONE, Method: PREINCUBATION

`ClCC(Cl)CBr` (centres undefined): the mutagenic call by setting is: (Test System: AMES SALMONELLA TYPHIMURIUM, Strain/Indicator: TA100, Metabolic Activation: RAT, LIVER, MICROSOMES, PHENOBARBITAL, NADPH COFACTORS, Method: STANDARD PLATE) “active; positive”; (Test System: AMES SALMONELLA TYPHIMURIUM, Strain/Indicator: TA100, Metabolic Activation: RAT, LIVER, MICROSOMES, PHENOBARBITAL, Method: STANDARD PLATE) “inactive; negative”.

On to `C1=Cc2c3c1cccc3cc1ccc3ccccc3c21`, for which the mutagenic call runs as follows: (Test System: AMES SALMONELLA TYPHIMURIUM, Strain/Indicator: TA98, Metabolic Activation: HUMAN, LIVER, MICROSOMES, Method: STANDARD PLATE) “active; positive”; (Test System: AMES SALMONELLA TYPHIMURIUM, Strain/Indicator: TA98, Metabolic Activation: RAT, LIVER, HEPATOCYTES, Method: PREINCUBATION) “active; positive”; (Test System: AMES SALMONELLA TYPHIMURIUM, Strain/Indicator: TA98, Metabolic Activation: RAT, LIVER, MICROSOMES, AROCLOR 1254, Method: STANDARD PLATE) “active; positive”; (Test System: AMES SALMONELLA TYPHIMURIUM, Strain/Indicator: TA98, Metabolic Activation: RAT, LIVER, MICROSOMES, Method: STANDARD PLATE) “active; positive”; (Test System: AMES SALMONELLA TYPHIMURIUM, Strain/Indicator: TA98, Metabolic Activation: RAT, LUNG, MICROSOMES, AROCLOR 1254, Method: STANDARD PLATE) “active; positive”; (Test System: AMES SALMONELLA TYPHIMURIUM, Strain/Indicator: TA98, Metabolic Activation: RAT, LUNG, MICROSOMES, Method: STANDARD PLATE) “inactive; negative”. Further, the mutagenic call reads like this: (Test System: CHINESE HAMSTER OVARY, Strain/Indicator: V-79/6-THIOGUANINE, Metabolic Activation: RAT, LIVER, S-9, AROCLOR 1254, Method: FLASK ASSAY) “active; positive”; (Test System: CHINESE HAMSTER OVARY, Strain/Indicator: V-79/6-THIOGUANINE, Metabolic Activation: SHE CELL MEDIATED, Method: FLASK ASSAY) “active; positive”; (Test System: CHINESE HAMSTER V-79, Strain/Indicator: V-79/6-THIOGUANINE, Metabolic Activation: RAT, LIVER, S-9, AROCLOR 1254, Method: SUSPENSION/PLATE) “active; positive”; (Test System: CHINESE HAMSTER V-79, Strain/Indicator: V-79/6-THIOGUANINE, Metabolic Activation: SHE CELL-MEDIATED, Method: SUSPENSION/PLATE) “active; positive”; (Test System: MOUSE LYMPHOMA, Strain/Indicator: L5178Y (TK+/TK-), Metabolic Activation: RAT, LIVER, S-9, AROCLOR 1254, Method: SUSPENSION/PLATE) “active; positive”; (Test System: UDS RAT HEPATOCYTES, Strain/Indicator: THY INCORP, Metabolic Activation: NONE, Method: LIQUID SCINTILLATION COUNTING) “active; positive”.

On to `CC1=C(O)C(=O)CC1`, for which the mutagenic call was “inactive; negative” under setting [1]; “inactive; negative” (Test System: AMES SALMONELLA TYPHIMURIUM, Strain/Indicator: TA98, Metabolic Activation: RAT, LIVER, S-9, AROCLOR 1254, Method: PREINCUBATION); “inactive; negative” under setting [2]; “inactive; negative” (Test System: AMES SALMONELLA TYPHIMURIUM, Strain/Indicator: TA100, Metabolic Activation: RAT, LIVER, S-9, AROCLOR 1254, Method: PREINCUBATION); “inactive; negative” (Test System: AMES SALMONELLA TYPHIMURIUM, Strain/Indicator: TA102, Metabolic Activation: NONE, Method: PREINCUBATION); “inactive; negative” (Test System: AMES SALMONELLA TYPHIMURIUM, Strain/Indicator: TA102, Metabolic Activation: RAT, LIVER, S-9, AROCLOR 1254, Method: PREINCUBATION).

In the case of `O=Nc1cccc(-c2ccccc2)c1`, the mutagenic call runs as follows: (Test System: AMES SALMONELLA TYPHIMURIUM, Strain/Indicator: TA98, Metabolic Activation: NONE, Method: STANDARD PLATE) “active; positive”; (Test System: AMES SALMONELLA TYPHIMURIUM, Strain/Indicator: TA100, Metabolic Activation: NONE, Method: STANDARD PLATE) “active; positive”.

Turning to `COC=O`, the mutagenic call is “inactive; negative” (Test System: AMES SALMONELLA TYPHIMURIUM, Strain/Indicator: TA97, Metabolic Activation: HAMSTER, LIVER, S-9, AROCLOR 1254 (10 OR 30%), Method: PREINCUBATION); “inactive; negative” (Test System: AMES SALMONELLA TYPHIMURIUM, Strain/Indicator: TA97, Metabolic Activation: NONE, Method: PREINCUBATION); “inactive; negative” (Test System: AMES SALMONELLA TYPHIMURIUM, Strain/Indicator: TA97, Metabolic Activation: RAT, LIVER, S-9, AROCLOR 1254 (10 OR 30%), Method: PREINCUBATION); “inactive; negative” (Test System: AMES SALMONELLA TYPHIMURIUM, Strain/Indicator: TA98, Metabolic Activation: HAMSTER, LIVER, S-9, AROCLOR 1254 (10 OR 30%), Method: PREINCUBATION); “inactive; negative” (Test System: AMES SALMONELLA TYPHIMURIUM, Strain/Indicator: TA98, Metabolic Activation: NONE, Method: GAS EXPOSURE); “inactive; negative” under setting [1]. Further, the mutagenic call (Test System: AMES SALMONELLA TYPHIMURIUM, Strain/Indicator: TA98, Metabolic Activation: RAT, LIVER, S-9, AROCLOR 1254 (10 OR 30%), Method: PREINCUBATION) is “inactive; negative”; the mutagenic call (Test System: AMES SALMONELLA TYPHIMURIUM, Strain/Indicator: TA98, Metabolic Activation: RAT, LIVER, S-9, SODIUM PHENOBARBITAL AND 5,6-BENZOFLAVONE, Method: GAS EXPOSURE) is “inactive; negative”; the mutagenic call (Test System: AMES SALMONELLA TYPHIMURIUM, Strain/Indicator: TA100, Metabolic Activation: HAMSTER, LIVER, S-9, AROCLOR 1254 (10 OR 30%), Method: PREINCUBATION) is “inactive; negative”; the mutagenic call (Test System: AMES SALMONELLA TYPHIMURIUM, Strain/Indicator: TA100, Metabolic Activation: NONE, Method: GAS EXPOSURE) is “inactive; negative”; the mutagenic call under setting [2] was “inactive; negative”; the mutagenic call (Test System: AMES SALMONELLA TYPHIMURIUM, Strain/Indicator: TA100, Metabolic Activation: RAT, LIVER, S-9, AROCLOR 1254 (10 OR 30%), Method: PREINCUBATION) is “inactive; negative”. In addition, the mutagenic call (Test System: AMES SALMONELLA TYPHIMURIUM, Strain/Indicator: TA100, Metabolic Activation: RAT, LIVER, S-9, SODIUM PHENOBARBITAL AND 5,6-BENZOFLAVONE, Method: GAS EXPOSURE) is “inactive; negative”; the mutagenic call (Test System: AMES SALMONELLA TYPHIMURIUM, Strain/Indicator: TA1535, Metabolic Activation: HAMSTER, LIVER, S-9, AROCLOR 1254 (10 OR 30%), Method: PREINCUBATION) is “inactive; negative”; the mutagenic call (Test System: AMES SALMONELLA TYPHIMURIUM, Strain/Indicator: TA1535, Metabolic Activation: NONE, Method: GAS EXPOSURE) was “inactive; negative”; the mutagenic call (Test System: AMES SALMONELLA TYPHIMURIUM, Strain/Indicator: TA1535, Metabolic Activation: NONE, Method: PREINCUBATION) was “inactive; negative”; the mutagenic call (Test System: AMES SALMONELLA TYPHIMURIUM, Strain/Indicator: TA1535, Metabolic Activation: RAT, LIVER, S-9, AROCLOR 1254 (10 OR 30%), Method: PREINCUBATION) is “inactive; negative”; the mutagenic call (Test System: AMES SALMONELLA TYPHIMURIUM, Strain/Indicator: TA1535, Metabolic Activation: RAT, LIVER, S-9, SODIUM PHENOBARBITAL AND 5,6-BENZOFLAVONE, Method: GAS EXPOSURE) is “inactive; negative”. Besides, the mutagenic call (Test System: AMES SALMONELLA TYPHIMURIUM, Strain/Indicator: TA1537, Metabolic Activation: NONE, Method: GAS EXPOSURE) was “inactive; negative”; the mutagenic call (Test System: AMES SALMONELLA TYPHIMURIUM, Strain/Indicator: TA1537, Metabolic Activation: RAT, LIVER, S-9, SODIUM PHENOBARBITAL AND 5,6-BENZOFLAVONE, Method: GAS EXPOSURE) was “inactive; negative”; the mutagenic call (Test System: E. COLI, Strain/Indicator: WP2UVRA, Metabolic Activation: NONE, Method: GAS EXPOSURE) was “inactive; negative”; the mutagenic call (Test System: E. COLI, Strain/Indicator: WP2UVRA, Metabolic Activation: RAT, LIVER, S-9, PHENOBARBITAL AND BETA--NAPHTHOFLAVONE, Method: GAS EXPOSURE) was “inactive; negative”.
